# Test results taken from patent US6245817A, “NPY5 receptor antagonists and methods for using same” (Bayer Corporation, priority 1999, dated 2001).
# pIC50: −log10 of the molar value.
# Columns and labels:
# Human NPY2 receptor = target: T1, Human NPY2 receptor (Homo sapiens, UniProt P49146); test: Human NPY2 Receptor Binding Assay; settings: [125I]PYY; read-out: hPPY2 IC50
# T1 sequence (P49146 1-381): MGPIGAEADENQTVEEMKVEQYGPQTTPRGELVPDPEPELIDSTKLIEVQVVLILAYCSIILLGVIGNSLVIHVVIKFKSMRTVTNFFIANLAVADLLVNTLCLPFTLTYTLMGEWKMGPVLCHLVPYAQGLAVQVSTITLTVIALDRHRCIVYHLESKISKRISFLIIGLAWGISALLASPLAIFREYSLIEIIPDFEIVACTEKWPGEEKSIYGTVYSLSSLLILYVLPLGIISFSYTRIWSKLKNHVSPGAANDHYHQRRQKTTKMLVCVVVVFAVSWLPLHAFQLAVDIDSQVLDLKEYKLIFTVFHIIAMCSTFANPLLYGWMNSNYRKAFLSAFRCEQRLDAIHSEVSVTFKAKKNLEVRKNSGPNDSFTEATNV
# Protocol: Binding assays were performed on GF/C Millipore 96-well plates pretreated with 0.02% polyethylenimine. The binding buffer for rat Y2 binding is Krebs-Ringer bicarbonate (pH 7.4) containing 0.01% BSA and 0.005% bacitracin. Samples consist of membrane protein, 25 pM [125I]PYY and drug dilution. Nonspecific binding is defined by 1 μpM NPY.
# After a 2 hour incubation at room temperature with constant mixing, the samples are aspirated on a vacuum manifold, and rinsed with ice-cold binding buffer. The amount of radioactivity in each well is quantitated with either gamma counting or liquid scintillation.
# Human NPY5 Receptor = target: T2, Human NPY5 Receptor (Homo sapiens, UniProt Q15761); test: Human NPY5 Receptor Binding Assay; settings: [125I]PYY; read-out: hNPY5 IC50
# T2 sequence (Q15761 1-445): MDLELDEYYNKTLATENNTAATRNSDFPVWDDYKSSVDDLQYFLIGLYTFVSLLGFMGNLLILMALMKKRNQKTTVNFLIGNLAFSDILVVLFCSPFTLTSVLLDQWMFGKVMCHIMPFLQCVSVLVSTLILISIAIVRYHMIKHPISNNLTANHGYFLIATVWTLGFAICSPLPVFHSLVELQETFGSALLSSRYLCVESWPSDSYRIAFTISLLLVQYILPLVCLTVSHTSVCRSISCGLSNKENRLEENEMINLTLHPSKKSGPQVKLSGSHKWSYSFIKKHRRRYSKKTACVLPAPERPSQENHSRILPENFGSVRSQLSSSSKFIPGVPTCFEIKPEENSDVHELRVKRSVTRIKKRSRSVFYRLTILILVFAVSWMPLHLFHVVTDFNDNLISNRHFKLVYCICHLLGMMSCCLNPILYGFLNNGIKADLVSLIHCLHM
# Rat NPY5 Receptor = target: T3, Rat NPY5 Receptor (Rattus norvegicus, UniProt Q63634); test: Rat NPY5 Receptor Binding Assay; settings: [125I]PYY; read-out: rNPY5 IC50
# T3 sequence (Q63634 1-445): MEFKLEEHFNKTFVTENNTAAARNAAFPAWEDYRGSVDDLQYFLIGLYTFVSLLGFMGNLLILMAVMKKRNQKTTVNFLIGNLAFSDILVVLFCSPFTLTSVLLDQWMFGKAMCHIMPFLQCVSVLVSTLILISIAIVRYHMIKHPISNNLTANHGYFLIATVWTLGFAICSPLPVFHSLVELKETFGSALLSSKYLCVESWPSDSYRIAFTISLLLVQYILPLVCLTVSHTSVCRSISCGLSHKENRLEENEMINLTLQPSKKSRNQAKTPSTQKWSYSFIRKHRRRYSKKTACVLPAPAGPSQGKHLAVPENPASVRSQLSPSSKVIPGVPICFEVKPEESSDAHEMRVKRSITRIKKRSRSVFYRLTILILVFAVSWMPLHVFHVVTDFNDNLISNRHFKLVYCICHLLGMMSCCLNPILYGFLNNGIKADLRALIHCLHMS
pIC50 (Human NPY2 receptor),pIC50 (Human NPY5 Receptor),pIC50 (Rat NPY5 Receptor),SMILES
–,5.82,< 6.00,"COC(=O)c1cnc(SCC(=O)Nc2ccc(C(=O)c3ccccc3)cc2)n1C [Compound 122, 2-[(4-Benzoyl-phenylcarbamoyl)-methylsulfanyl]-3-methyl-3H-imidazole-4-carboxylic acid methyl ester]"
–,6.38,6.28,"O=C(CSc1nnc(NC2CCCCC2)s1)Nc1ccc(C(=O)c2ccccc2)cc1 [Compound 123, N-(4-Benzoyl-phenyl)-2-(5-cyclohexylamino [1,3,4]thiadiazol-2-ylsulfanyl)-acetamide]"
–,< 6.00,5.64,O=C(CSc1nnc(CSCCOc2ccc(Cl)cc2Cl)o1)Nc1ccc(C(=O)c2ccccc2)cc1 [Compound 124]
–,6.00,6.44,"CC(Sc1nnnn1C)C(=O)Nc1ccc(C(C)(C)C)cc1 (stereo not drawn) [Compound 125, N-(4-tert-Butyl-phenyl)-2-(1-methyl-1H-tetrazol-5-ylsulfanyl)-propionamide]"
–,7.23,7.30,"CC(Sc1nnnn1C)C(=O)Nc1ccc(C2CCCCC2)cc1 (stereo not drawn) [Compound 127, N-(4-Cyclohexyl-phenyl)-2-(1-methyl-1H-tetrazol-5-ylsulfanyl)-propionamide]"
–,6.80,6.82,"Cn1nnnc1SCC(=O)Nc1ccc2c(c1)Cc1ccccc1-2 [Compound 130, N-(9H-Fluoren-2-yl)-2-(1-methyl-1H-tetrazol-5-ylsulfanyl)-acetamide]"

# The next lines start with the compound.
SMILES,pIC50 (Human NPY2 receptor),pIC50 (Human NPY5 Receptor),pIC50 (Rat NPY5 Receptor)
"O=C(CSc1nc2cc([N+](=O)[O-])ccc2[nH]1)Nc1ccc(C2CCCCC2)cc1 [Compound 17, N-(4-Cyclohexyl-phenyl)-2-(5-nitro-1H-benzoimidazol-2-ylsulfanyl)-acetamide]",< 5.30,6.42,–
"O=C(CSc1nc2cc([N+](=O)[O-])ccc2[nH]1)Nc1ccc(C(=O)c2ccccc2)cc1 [Compound 18, N-(4-Benzoyl-phenyl)-2-(5-nitro-1H-benzolmidazol-2-ylsulfanyl)-acetamide]",< 5.30,6.70,–
"COc1ccc2[nH]c(SCC(=O)Nc3ccc(C4CCCCC4)cc3)nc2c1 [Compound 19, N-(4-Cyclohexyl-phenyl)-2-(5-methoxy-1H-benzolmidazol-2-ylsulfanyl)-acetamide]",< 5.30,6.15,–
"COc1ccc2[nH]c(SCC(=O)Nc3ccc(C(=O)c4ccccc4)cc3)nc2c1 [Compound 20, N-(4-Benzoyl-phenyl)-2-(5-methoxy-1H-benzolmidazol-2-ylsulfanyl)-acetamide]",< 5.30,6.38,–
"Cc1ccc2[nH]c(SCC(=O)Nc3ccc(C4CCCCC4)cc3)nc2c1 [Compound 21, N-(4-Cyclohexyl-phenyl)-2-(5-methyl-1H-benzolmidazol-2-ylsulfanyl)-acetamide]",< 5.30,6.37,–
"Cc1ccc2[nH]c(SCC(=O)Nc3ccc(C(=O)c4ccccc4)cc3)nc2c1 [Compound 22, N-(4-Benzoyl-phenyl)-2-(5-methyl-1H-benzolmidazol-2-ylsulfanyl)-acetamide]",< 5.30,6.51,–
"O=C(CSc1ncnc2c1ncn2[C@@H]1O[C@H](CO)[C@H](O)[C@H]1O)Nc1ccc(C2CCCCC2)cc1 [Compound 23, N-(4-Cyclohexyl-phenyl)-2-[9-((2R,3R,4R,5R)-3,4-dihydroxy-5-hydroxymethyl-tetrahydro-furan-2-yl)-9H-purin-6-ylsulfanyl]-acetamide]",< 5.30,< 5.00,–
"O=C(CSc1ncnc2c1ncn2[C@@H]1O[C@H](CO)[C@H](O)[C@H]1O)Nc1ccc(C(=O)c2ccccc2)cc1 [Compound 24, N-(4-Benzoyl-phenyl)-2-[9-((2R,3R,4R,5R)-3,4-dihydroxy-hydroxymethy-tetrahydro-furan-2-yl)-9H-purin-ylsulfanyl]-acetamide]",< 5.30,< 5.00,–
"Cn1c(CO)cnc1SCC(=O)Nc1ccc(C(=O)c2ccccc2)cc1 [Compound 121, N-(4-Benzoyl-phenyl)-2-(5-hydroxymethyl-1-methyl-1H-imidazol-2-ylsulfanyl)acetamide]",–,6.04,5.55
